Results published in patent US20210212913A1, “COSMETIC COMPOSITION FOR PROMOTING SKIN EXFOLIATION” (LG HOUSEHOLD & HEALTH CARE LTD., priority 2017, published 2021).

Test system: porcine skin stratum corneum
Assay: porcine skin stratum corneum evaluation (exfoliation evaluation)
Format: cell-based, pig
Settings: 6 mm porcine skin sample, 100 ul sample, 37° C. and 50% humidity for a day; result in words (values only in figures)
Procedure: For the porcine skin stratum corneum evaluation of the present disclosure, the exfoliation evaluation method mentioned in Journal of the European Academy of Dermatology and Venereology, 2014, 28, 415-423 was modified and used. Specifically, a sample of 6 mm diameter from 1 mm thick skin of a pig, and the like, was taken with a biopsy tool, and it was placed in a 96-well plate, and after washing it with phosphate buffered saline (PBS) once, 100 ul of the sample to be tested was added. The present sample was stored under the conditions of 37° C. and 50% humidity for a day, and then the number of exfoliated stratum corneum was measured with a cell counter and a sample containing only water was plotted as a negative control group and 10% gluconolactone […] was plotted as a positive control group. The result was shown in the fold increase compared to the value of the result of gluconolactone 10% pH 6 for relative comparison.

NC(=O)NC1NC(=O)NC1=O (stereo not shown) [allantoin]
exfoliation ability (number of exfoliated stratum corneum, fold increase compared to gluconolactone 10% pH 6): did not have high efficacy when used alone
